Data published in patent publication US9695155B2, “Herbicidal substituted pyrimidinyloxy benzene compounds” (E. I. DU PONT DE NEMOURS AND COMPANY, priority 2013, dated 2017).

How the values were obtained:
ragweed [1] = test: Test A preemergence; assay type: in vivo, Ambrosia elatior
In short: (§1)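 Scoring: eye-based comparison with untreated controls, 0 for no effect through 100 for complete control, at about day 10. Treatments: directed soil spray preemergence; foliar spray postemergence on 2–10 cm plants at the one- to two-leaf stage. Medium: loam soil with sand.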

Italian ryegrass = test: Test A preemergence; assay type: in vivo, Lolium multiflorum
In short: as §1

barnyardgrass = test: Test A postemergence; assay type: in vivo, Echinochloa crus-galli; conditions: 0 to 100 scale, 0 no effect, 100 complete control
In short: as §1

ragweed [2] = test: Test A postemergence; assay type: in vivo, Ambrosia elatior; conditions: 0 to 100 scale, 0 no effect, 100 complete control
In short: as §1

corn [3] = test: Test A postemergence; assay type: in vivo, Zea mays; conditions: 0 to 100 scale, 0 no effect, 100 complete control
In short: as §1

wheat, winter = test: Test C postemergence; assay type: in vivo, Triticum aestivum; conditions: for Wheat plant response rating: 31 g ai/ha
In short: (§2)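 Seeds were sown in loam–sand blend and sprayed preemergence, while plants at 1- to 4-leaf stage (2–18 cm) in peat-based medium received postemergence sprays; test chemicals were formulated in a non-phytotoxic solvent with surfactant. After 13–15 days in a greenhouse, injury was rated visually against controls, 0 (no effect) to 100 (complete control).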

corn [4] = test: Test C postemergence; assay type: in vivo, Zea mays
In short: as §2

large (Lg) crabgrass = test: Test C postemergence; assay type: in vivo, Digitaria sanguinalis
In short: as §2

giant foxtail = test: Test C postemergence; assay type: in vivo, Setaria faberii
In short: as §2

johnsongrass = test: Test C postemergence; assay type: in vivo, Sorghum halepense; conditions: for Johnsongrass plant response rating: 31 g ai/ha
In short: as §2

yellow nutsedge = test: Test C postemergence; assay type: in vivo, Cyperus esculentus; conditions: for Nutsedge, Yellow plant response rating: 31 g ai/ha
In short: as §2

[5] = 1000 g ai/ha, 0 to 100 scale, 0 no effect, 100 complete control, approx. 10 days
[6] = postemergence, visual rating, scale 0 to 100 (0 no effect, 100 complete control), 13 to 15 days
[7] = 31 g ai/ha, 0 to 100 scale where 0 is no effect and 100 is complete control, visual, approximately 10 days
[8] = 16 g ai/ha, postemergence, 0 is no effect, 100 is complete control
[9] = 125 g ai/ha, postemergence, visual rating, scale 0 to 100 (0 no effect, 100 complete control)
[10] = Postemergence, 62 g ai/ha, scale 0 to 100 (0 no effect, 100 complete control), 13 to 15 days
[11] = 31 g ai/ha, postemergence, visual rating, scale 0 to 100 (0 no effect, 100 complete control), 13 to 15 days

Q: Which results are given for Clc1cnc(Oc2ccccc2-n2cc(C3CC3)nn2)nc1 [Compound 160, 5-chloro-2-[2-(4-cyclopropyl-1H-1,2,3-triazol-1-yl)phenoxy]pyrimidine]?
A: Ragweed plant response rating (ragweed [1]; [5]): 100; Ryegrass, Italian plant response rating (Italian ryegrass; [5]): 90; pest or weed control at 1000 g/ha (barnyardgrass; Echinochloa crus-galli, post-emergence, 240 h, 1000 g ai/ha, read-out: Plant response rating Barnyardgrass): 100%; Plant response rating, Ragweed (ragweed [2]; 1000 g ai/ha): 100; plant injury at 1000 g/ha (corn [3]; Zea mays, post-emergence, 240 h, 1000 g ai/ha, read-out: Plant response rating Corn): 100%; Wheat plant response rating (wheat, winter; [6]): 5; plant injury at 16 g/ha (wheat, winter; Triticum aestivum, post-emergence, 16 g ai/ha, postemergence, 0 is no effect, 100 is complete control, read-out: Plant response rating (0 to 100), Wheat): 0%; plant injury at 125 g/ha (wheat, winter; Triticum aestivum, post-emergence, 125 g ai/ha, postemergence, visual rating, scale 0 to 100 (0 no effect, 100 complete control), read-out: Plant response rating, Wheat): 5%; plant injury at 62 g/ha (wheat, winter; Triticum aestivum, post-emergence, Postemergence, 62 g ai/ha, scale 0 to 100 (0 no effect, 100 complete control), read-out: Plant response rating, Wheat): 5%; plant injury at 16 g/ha (corn [4]; Zea mays, post-emergence, 16 g ai/ha, postemergence, 0 is no effect, 100 is complete control, read-out: Plant response rating (0 to 100), Corn): 0%; plant injury at 31 g/ha (corn [4]; Zea mays, post-emergence, 31 g ai/ha, postemergence, visual rating, scale 0 to 100 (0 no effect, 100 complete control), 13 to 15 days, read-out: Corn plant response rating): 5%; Corn plant response rating (crop injury, 0 = no effect, 100 = complete kill) at 125 g/ha (corn [4]; Zea mays, post-emergence, 125 g ai/ha, postemergence, visual rating, scale 0 to 100 (0 no effect, 100 complete control)): 5%; Corn plant response rating (crop injury, 0 = no effect, 100 = complete kill) at 62 g/ha (corn [4]; Zea mays, post-emergence, Postemergence, 62 g ai/ha, scale 0 to 100 (0 no effect, 100 complete control)): 5%; pest or weed control at 16 g/ha (large (Lg) crabgrass; Digitaria sanguinalis, post-emergence, 16 g ai/ha, postemergence, 0 is no effect, 100 is complete control, read-out: Plant response rating (0 to 100), Crabgrass, Large): 5%; pest or weed control at 31 g/ha (large (Lg) crabgrass; Digitaria sanguinalis, post-emergence, 31 g ai/ha, postemergence, visual rating, scale 0 to 100 (0 no effect, 100 complete control), 13 to 15 days, read-out: Crabgrass, Large plant response rating): 5%; pest or weed control at 125 g/ha (large (Lg) crabgrass; Digitaria sanguinalis, post-emergence, 125 g ai/ha, postemergence, visual rating, scale 0 to 100 (0 no effect, 100 complete control), read-out: Plant response rating, Crabgrass, Large): 10%; pest or weed control at 62 g/ha (large (Lg) crabgrass; Digitaria sanguinalis, post-emergence, Postemergence, 62 g ai/ha, scale 0 to 100 (0 no effect, 100 complete control), read-out: Plant response rating, Crabgrass, Large): 5%; pest or weed control at 16 g/ha (giant foxtail; Setaria faberi, post-emergence, 16 g ai/ha, postemergence, 0 is no effect, 100 is complete control, read-out: Plant response rating (0 to 100), Foxtail, Giant): 0%; pest or weed control at 31 g/ha (giant foxtail; Setaria faberi, post-emergence, 31 g ai/ha, postemergence, visual rating, scale 0 to 100 (0 no effect, 100 complete control), 13 to 15 days, read-out: Foxtail, Giant plant response rating): 5%; pest or weed control at 125 g/ha (giant foxtail; Setaria faberi, post-emergence, 125 g ai/ha, postemergence, visual rating, scale 0 to 100 (0 no effect, 100 complete control), read-out: Plant response rating, Foxtail, Giant): 10%; pest or weed control at 62 g/ha (giant foxtail; Setaria faberi, post-emergence, Postemergence, 62 g ai/ha, scale 0 to 100 (0 no effect, 100 complete control), read-out: Plant response rating, Foxtail, Giant): 5%; Johnsongrass plant response rating (johnsongrass; [6]): 0; pest or weed control at 16 g/ha (johnsongrass; Sorghum halepense, post-emergence, 16 g ai/ha, postemergence, 0 is no effect, 100 is complete control, read-out: Plant response rating (0 to 100), Johnsongrass): 0%; pest or weed control at 125 g/ha (johnsongrass; Sorghum halepense, post-emergence, 125 g ai/ha, postemergence, visual rating, scale 0 to 100 (0 no effect, 100 complete control), read-out: Plant response rating, Johnsongrass): 5%; pest or weed control at 62 g/ha (johnsongrass; Sorghum halepense, post-emergence, Postemergence, 62 g ai/ha, scale 0 to 100 (0 no effect, 100 complete control), read-out: Plant response rating, Johnsongrass): 0%; Nutsedge, Yellow plant response rating (yellow nutsedge; [6]): 5; pest or weed control at 16 g/ha (yellow nutsedge; Cyperus, post-emergence, 16 g ai/ha, postemergence, 0 is no effect, 100 is complete control, read-out: Plant response rating (0 to 100), Nutsedge, Yellow): 5%; pest or weed control at 125 g/ha (yellow nutsedge; Cyperus, post-emergence, 125 g ai/ha, postemergence, visual rating, scale 0 to 100 (0 no effect, 100 complete control), read-out: Plant response rating, Nutsedge, Yellow): 5%; pest or weed control at 62 g/ha (yellow nutsedge; Cyperus, post-emergence, Postemergence, 62 g ai/ha, scale 0 to 100 (0 no effect, 100 complete control), read-out: Plant response rating, Nutsedge, Yellow): 5%

Q: How did the “Plant response rating, Ragweed” value (ragweed [1]; [7]) turn out when FCc1cccc(Oc2ncc(Cl)cn2)c1-n1cc(I)cn1 [Compound 245] was run?
A: 0

Q: And the “Ragweed plant response rating (0 to 100 scale)” value (ragweed [1]; 125 g ai/ha)?
A: 0

Q: And the “Plant response rating, Ryegrass, Italian” value (Italian ryegrass; [7])?
A: 0

Q: What about the “Ryegrass, Italian plant response rating (0 to 100 scale)” value (Italian ryegrass; 125 g ai/ha) of the same compound?
A: 0

Q: What about the “Plant response rating, Barnyardgrass” value (barnyardgrass; 31 g ai/ha) of the same compound?
A: 0

Q: And the “Plant response rating, Barnyardgrass” value (barnyardgrass; 125 g ai/ha)?
A: 30

Q: And the “Plant response rating, Ragweed” value (ragweed [2]; 31 g ai/ha)?
A: 0

Q: What about the “Plant response rating, Ragweed” value (ragweed [2]; 125 g ai/ha) of the same compound?
A: 20

Q: And the “Plant response rating, Corn” value (corn [3]; 31 g ai/ha)?
A: 20

Q: And the “Plant response rating, Corn” value (corn [3]; 125 g ai/ha)?
A: 40

Q: And the “Plant response rating (0 to 100), Wheat” value (wheat, winter; [8])?
A: 0

Q: And the “Wheat plant response rating” value (wheat, winter; [6])?
A: 0

Q: What about the “Plant response rating, Wheat” value (wheat, winter; [9]) of the same compound?
A: 5

Q: What about the “Plant response rating, Wheat” value (wheat, winter; [10]) of the same compound?
A: 0

Q: And the “Plant response rating (0 to 100), Corn” value (corn [4]; [8])?
A: 5

Q: What about the “Corn plant response rating” value (corn [4]; [11]) of the same compound?
A: 5

Q: What about the “Plant response rating, Corn” value (corn [4]; [9]) of the same compound?
A: 5

Q: What about the “Plant response rating, Corn” value (corn [4]; [10]) of the same compound?
A: 5

Q: And the “Plant response rating (0 to 100), Crabgrass, Large” value (large (Lg) crabgrass; [8])?
A: 5

Q: And the “Crabgrass, Large plant response rating” value (large (Lg) crabgrass; [11])?
A: 5

Q: And the “Plant response rating, Crabgrass, Large” value (large (Lg) crabgrass; [9])?
A: 15

Q: And the “Plant response rating, Crabgrass, Large” value (large (Lg) crabgrass; [10])?
A: 10

Q: And the “Plant response rating (0 to 100), Foxtail, Giant” value (giant foxtail; [8])?
A: 35

Q: And the “Foxtail, Giant plant response rating” value (giant foxtail; [11])?
A: 35

Q: What about the “Plant response rating, Foxtail, Giant” value (giant foxtail; [9]) of the same compound?
A: 15

Q: What about the “Plant response rating, Foxtail, Giant” value (giant foxtail; [10]) of the same compound?
A: 20

Q: What about the “Plant response rating (0 to 100), Johnsongrass” value (johnsongrass; [8]) of the same compound?
A: 5

Q: And the “Johnsongrass plant response rating” value (johnsongrass; [6])?
A: 5

Q: And the “Plant response rating, Johnsongrass” value (johnsongrass; [9])?
A: 10

Q: And the “Plant response rating, Johnsongrass” value (johnsongrass; [10])?
A: 10

Q: What about the “Plant response rating (0 to 100), Nutsedge, Yellow” value (yellow nutsedge; [8]) of the same compound?
A: 5

Q: What about the “Nutsedge, Yellow plant response rating” value (yellow nutsedge; [6]) of the same compound?
A: 5

Q: And the “Plant response rating, Nutsedge, Yellow” value (yellow nutsedge; [9])?
A: 10

Q: And the “Plant response rating, Nutsedge, Yellow” value (yellow nutsedge; [10])?
A: 5
